According to the NIST ThermoML archive (doi:10.1007/s10765-007-0223-x):

Assay: xn = mol fraction of the nth substance listed
Details: 101 kPa, Liquid; for speed of sound: Single path-length method

COC(C)(C)C [2-methoxy-2-methylpropane] + c1ccccc1
Details	mass density [kg/m3]	speed of sound [m/s]
305.65 K, x1 = 0.052	856.117	–
305.65 K, x1 = 0.111	846.045	–
305.65 K, x1 = 0.202	831.061	–
305.65 K, x1 = 0.303	815.461	–
305.65 K, x1 = 0.397	801.707	–
305.65 K, x1 = 0.5	787.314	–
305.65 K, x1 = 0.596	774.518	–
305.65 K, x1 = 0.698	761.485	–
305.65 K, x1 = 0.791	750.234	1047.1
305.65 K, x1 = 0.902	737.34	1021.7
305.65 K, x1 = 0.95	731.914	1010.9
305.65 K, x1 = 1	726.444	1002.4
308.15 K, x1 = 0.052	853.44	1234.9
308.15 K, x1 = 0.111	843.388	1216.5
308.15 K, x1 = 0.202	828.417	1188.9
308.15 K, x1 = 0.303	812.827	1160
308.15 K, x1 = 0.397	799.075	1134.1
308.15 K, x1 = 0.5	784.683	1106.9
308.15 K, x1 = 0.596	771.88	1082.4
308.15 K, x1 = 0.698	758.841	1057.2
308.15 K, x1 = 0.791	747.582	1035.7
308.15 K, x1 = 0.902	734.673	1010.3
308.15 K, x1 = 0.95	729.241	999.43
308.15 K, x1 = 1	723.763	990.99
310.65 K, x1 = 0.052	850.759	1223.5
310.65 K, x1 = 0.111	840.726	1205.2
310.65 K, x1 = 0.202	825.767	1177.5
310.65 K, x1 = 0.303	810.187	1148.8
310.65 K, x1 = 0.397	796.438	1122.8
310.65 K, x1 = 0.5	782.044	1095.5
310.65 K, x1 = 0.596	769.234	1071.2
310.65 K, x1 = 0.698	756.187	1046
310.65 K, x1 = 0.791	744.918	1024.3
310.65 K, x1 = 0.902	731.995	998.9
310.65 K, x1 = 0.95	726.556	988.05
310.65 K, x1 = 1	721.069	979.62
313.15 K, x1 = 0.052	848.07	1212
313.15 K, x1 = 0.111	838.056	1193.8
313.15 K, x1 = 0.202	823.111	1166.3
313.15 K, x1 = 0.303	807.533	1137.4
313.15 K, x1 = 0.397	793.792	1111.5
313.15 K, x1 = 0.5	779.391	1084.2
313.15 K, x1 = 0.596	766.575	1059.8
313.15 K, x1 = 0.698	753.517	1034.6
313.15 K, x1 = 0.791	742.24	1013
313.15 K, x1 = 0.902	729.301	987.61
313.15 K, x1 = 0.95	723.852	976.7
313.15 K, x1 = 1	718.357	968.16
315.65 K, x1 = 0.052	845.378	1200.6
315.65 K, x1 = 0.111	835.381	1182.5
315.65 K, x1 = 0.202	820.447	1155
315.65 K, x1 = 0.303	804.877	1126.2
315.65 K, x1 = 0.397	791.135	1100.3
315.65 K, x1 = 0.5	776.733	1073
315.65 K, x1 = 0.596	763.908	1048.6
315.65 K, x1 = 0.698	750.84	1023.3
315.65 K, x1 = 0.791	739.55	1001.7
315.65 K, x1 = 0.902	726.593	976.23
315.65 K, x1 = 0.95	721.138	965.31
315.65 K, x1 = 1	715.636	956.8
318.15 K, x1 = 0.052	842.684	1189.4
318.15 K, x1 = 0.111	832.703	1171.3
318.15 K, x1 = 0.202	817.778	1143.8
318.15 K, x1 = 0.303	802.213	1115
318.15 K, x1 = 0.397	788.472	1089.2
318.15 K, x1 = 0.5	774.062	1061.8
318.15 K, x1 = 0.596	761.226	1037.4
318.15 K, x1 = 0.698	748.147	1012.1
318.15 K, x1 = 0.791	736.847	990.48
318.15 K, x1 = 0.902	723.87	964.92
320.65 K, x1 = 0.052	840.006	1178.4
320.65 K, x1 = 0.111	830.019	1160.1
320.65 K, x1 = 0.202	815.102	1132.6
320.65 K, x1 = 0.303	799.541	1103.9
320.65 K, x1 = 0.397	785.8	1078.1
320.65 K, x1 = 0.5	771.341	1050.4
320.65 K, x1 = 0.596	758.536	1026.2
320.65 K, x1 = 0.698	745.444	1001
320.65 K, x1 = 0.791	734.13	979.25
320.65 K, x1 = 0.902	721.133	953.72
323.15 K, x1 = 0.052	837.364	1168
323.15 K, x1 = 0.111	827.342	1149.2
323.15 K, x1 = 0.202	812.432	1121.7
323.15 K, x1 = 0.303	796.876	1093
323.15 K, x1 = 0.397	783.138	1067.2
323.15 K, x1 = 0.5	768.725	1040
323.15 K, x1 = 0.596	755.841	1015.2
323.15 K, x1 = 0.698	742.756	990.11
323.15 K, x1 = 0.791	731.411	968.17
323.15 K, x1 = 0.902	718.4	942.69
323.15 K, x1 = 0.95	712.917	931.73
323.15 K, x1 = 1	707.381	922.97
